{"source": "patent EP4652842A1", "about": "“BIOPESTICIDE COMPOSITION, PROCEDURE OF OBTAIN THEREOF, AND METHOD FOR CONTROLLING AND TREATING BROAD SPECTRUM OF PESTS, DISEASES AND WEEDS IN PLANTS” (priority 2024, dated 2025)", "assay_type_in_all_cases": "in vivo", "key": {"Bemisia tabaci [1]": {"tested_on": "Bemisia tabaci", "protocol": "(§1) The objective of this bioassay is to evaluate the effect of test items on the mortality of adult insects and mites in a short/medium-term (0-24 hours) by topical application. Tests were conducted in plastic net bottles. A total of 10 replicates for each treatment (tests items and negative control) were used in each experiment and temporarily replicated 3 times along the week. (Figure 12)\n(§2) Numbers of live and dead adult insects and mites were counted at 24 h post-treatment. Adult insects and mites were considered dead if no movement was apparent after probing with the tip of a fine brush under stereoscopic magnifying glass. Mortality percentage was calculated in treatment and control groups. If the mortality in negative control is above 20% the test was discarded.\n(§3) Means of %M were compared using a one-way analysis of variance (ANOVA, p<0.05) and LSD-test as a post hoc test to verify significant differences between single treatments using Statgraphics Centurion XVII software. When nonnormality in the data was detected, an additional Kruskal-Wallis test was conducted, and Box-and-Whisker Plot (Median Notch) was presented.\n(§4) The different compositions were tested by trials that were carried out on different relevant insect pests and acari including: Tuta absoluta, Bemisia tabaci, Myzus persicae, Frankliniella occidentalis and Tetranychus urticae. The bioassay type used was contact mortality (Leaf Disc Method) described in the example 4.\n(§5) The main treatments included in the comparison of efficacy are: Group A: Individual solvents: Benzyl alcohol, ethanol, isopropanol, and water were applied directly (purity as in the label) diluted at 0.3% (3cc/L) in water without formulation. Group B: Vegetable matrix extracts were extracted with different solvents such as benzyl alcohol, ethanol, isopropanol, and water."}, "[2]": {"tested_on": "Frankliniella occidentalis", "protocol": "as §1, §2, §3, §4, §5"}, "Myzus persicae [3]": {"tested_on": "Myzus persicae", "protocol": "as §1, §2, §3, §4, §5"}, "Tetranychus urticae [4]": {"tested_on": "Tetranychus urticae", "protocol": "as §1, §2, §3, §4, §5"}, "Tuta absoluta [5]": {"tested_on": "Tuta absoluta", "protocol": "as §1, §2, §3, §4, §5"}, "Bemisia tabaci [6]": {"tested_on": "Bemisia tabaci", "experiment": "Antifeedant effects: settling inhibition", "protocol": "(§6) The concept of antifeedant as a substance that acts on insect behaviour involves feeding reduction (FR), settling inhibition (SI) and oviposition Inhibition (IO). In some cases, settling inhibition is considered as indirect repellent effect. […] It is based on the preference of target adults for treated and non-treated host plants located in the same entomological cages (in plant assays). The experiments were conducted in bugdorm®-type net cages (Figure 13). Four similar host plants (two leaf stage) were transferred to a same pot (Figure 14). Two of the plants were sprayed with biopesticide compositions and the others with the control and dried for 30 minutes. Target adults were released at the site that was equidistant from the two plants. A total of 5 cages for each treatment (four plants each) and control were used in each experiment and replicated 3 times in different days. […] After 24 hours, the number of settled adults in treated and non-treated plants and the number of laid eggs were recorded on the upper and underside of each leaf. Number of adults and eggs were counted under a stereomicroscope. […] T= Settling of treated plants; C= Setting of control plants. Means of %Sl and %IO were analysed for significance by the non-parametric Wilcoxon signed-rank test (p < 0.05)."}, "Myzus persicae [7]": {"tested_on": "Myzus persicae", "experiment": "Antifeedant effects: settling inhibition", "protocol": "as §6"}, "[8]": {"tested_on": "Frankliniella occidentalis", "experiment": "Antifeedant effects: feeding reduction", "conditions": "F. occidentalis"}, "Tuta absoluta [9]": {"tested_on": "Tuta absoluta", "experiment": "Antifeedant effects: feeding reduction"}, "Tetranychus urticae [10]": {"tested_on": "Tetranychus urticae", "experiment": "Antifeedant effects: settling inhibition and oviposition inhibition", "conditions": "T. urticae", "protocol": "as §6, with “control plants. […] Means of” for “control plants. Means of”"}, "[11]": {"conditions": "%SI settling inhibition index, at sublethal concentration 0.021 %"}, "[12]": {"conditions": "antifeedant/repellent, concentration under the lethal EC50"}, "[13]": {"conditions": "%FR feeding reduction index, at sublethal concentration 0.014 %"}}, "note": "Where two headings read alike, the source gives them in different places."}
{"smiles": "COC(=O)C=Cc1ccccc1", "note": "[Methyl cinnamate]", "values": [{"measurement": "%M", "setting": "Bemisia tabaci [1]; Bemisia tabaci, at sublethal concentration 0.014 %, Abbott's corrected", "result": "14.5 ± 9.8", "unit": "%"}, {"measurement": "Sublethal concentration (%)", "setting": "Bemisia tabaci [1]; Bemisia tabaci, contact mortality, concentration under the lethal EC50", "result": 0.014, "unit": "%"}, {"measurement": "%M", "setting": "[2]; Frankliniella occidentalis, at sublethal concentration 0.021 %, Abbott's corrected", "result": "25.6 ± 4.6", "unit": "%"}, {"measurement": "Sublethal concentration (%)", "setting": "[2]; Frankliniella occidentalis, contact mortality, concentration under the lethal EC50", "result": 0.021, "unit": "%"}, {"measurement": "%M", "setting": "Myzus persicae [3]; Myzus persicae, at sublethal concentration 0.014 %, Abbott's corrected", "result": "17.1 ± 4.7", "unit": "%"}, {"measurement": "Sublethal concentration (%)", "setting": "Myzus persicae [3]; Myzus persicae, contact mortality, concentration under the lethal EC50", "result": 0.014, "unit": "%"}, {"measurement": "%M", "setting": "Tetranychus urticae [4]; Tetranychus urticae, at sublethal concentration 0.021 %, Abbott's corrected", "result": "24.7 ± 6.9", "unit": "%"}, {"measurement": "Sublethal concentration (%)", "setting": "Tetranychus urticae [4]; Tetranychus urticae, contact mortality, concentration under the lethal EC50", "result": 0.021, "unit": "%"}, {"measurement": "%M", "setting": "Tuta absoluta [5]; Tuta absoluta, at sublethal concentration 0.021 %, Abbott's corrected", "result": "17.5 ± 5.9", "unit": "%"}, {"measurement": "Sublethal concentration (%)", "setting": "Tuta absoluta [5]; Tuta absoluta, contact mortality, concentration under the lethal EC50", "result": 0.021, "unit": "%"}, {"measurement": "%SI/ %FR", "setting": "Bemisia tabaci [6]; [11]", "result": "14.4 ± 3.6", "unit": "%"}, {"measurement": "Sublethal concentration (%)", "setting": "Bemisia tabaci [6]; [12]", "result": 0.021, "unit": "%"}, {"measurement": "%SI/ %FR", "setting": "Myzus persicae [7]; %SI settling inhibition index, at sublethal concentration 0.014 %", "result": "17.9 ± 6.7", "unit": "%"}, {"measurement": "Sublethal concentration (%)", "setting": "Myzus persicae [7]; [12]", "result": 0.014, "unit": "%"}, {"measurement": "%SI/ %FR", "setting": "[8]; [13]", "result": "22.2 ± 2.1", "unit": "%"}, {"measurement": "Sublethal concentration (%)", "setting": "[8]; [12]", "result": 0.014, "unit": "%"}, {"measurement": "%SI/ %FR", "setting": "Tuta absoluta [9]; [13]", "result": "30.4 ± 5.7", "unit": "%"}, {"measurement": "Sublethal concentration (%)", "setting": "Tuta absoluta [9]; [12]", "result": 0.014, "unit": "%"}, {"measurement": "%SI/ %FR", "setting": "Tetranychus urticae [10]; [11]", "result": "20.0 ± 4.6", "unit": "%"}, {"measurement": "Sublethal concentration (%)", "setting": "Tetranychus urticae [10]; [12]", "result": 0.021, "unit": "%"}]}
{"smiles": "CC(C)=CCCC(C)=CC=O", "note": "[Citral]", "values": [{"measurement": "%M", "setting": "Bemisia tabaci [1]; in vivo", "result": "20.7 ±7.3", "unit": "%"}, {"measurement": "%M", "setting": "[2]; in vivo", "result": "27.8 ± 3.6", "unit": "%"}, {"measurement": "%M", "setting": "Myzus persicae [3]; in vivo", "result": "30.2 ±5.8", "unit": "%"}, {"measurement": "%M", "setting": "Tetranychus urticae [4]; in vivo", "result": "16.9 ± 3.9", "unit": "%"}, {"measurement": "%M", "setting": "Tuta absoluta [5]; in vivo", "result": "0.0 ±0.0", "unit": "%"}]}
